Reference: US11530244B2, “Cyclic polypeptides for PCSK9 inhibition” (priority 2018, dated 2022)
Starred links: 1 amine or outer side, 2 acyl side, 3 side chain; linkers in the order of their positions; H or OH if unused. Positions of bridges follow the written chain, without caps; N, C: chain ends. Non-standard residues stand in square brackets, D forms with d. Residues, ends and D or L forms follow the SMILES beside them. ξ: configuration not given here. NHCH2(1,3-C6H4)CH2CO = O=C(Cc1cccc(CN[*:1])c1)[*:2]; Pro(cis-4-CF3) = O=C(O)[C@@H]1C[C@H](C(F)(F)F)CN1; Trp(5-F) = N[C@@H](Cc1c[nH]c2ccc(F)cc12)C(=O)O; mXylylene(5-F) = Fc1cc(C[*:1])cc(C[*:2])c1; ξPhe(4-COOH) = NC(Cc1ccc(C(=O)O)cc1)C(=O)O; X4 = O=C(CCSCc1cccc(CSCCN[*:1])c1)[*:2]; γGlu = O=C(O)[C@H](CCC(=O)[*:2])N[*:1]; mXylylene = c1cc(C[*:1])cc(C[*:2])c1; NMeY = CN[C@@H](Cc1ccc(O)cc1)C(=O)O; X8 = Clc1cc(C[*:1])cc(C[*:2])c1; aThr = C[C@H](O)[C@H](N)C(=O)O; αMeP = C[C@@]1(C(=O)O)CCCN1; dOrn = NCCC[C@@H](N)C(=O)O; Mpa = O=C(O)CCS

Experiments:
Format in all cases: binding
[1] = molecular target: human PCSK9 / human LDLR EGFa domain interaction (Homo sapiens (Human), UniProt Q8NBP7); experiment: TR-FRET assay of inhibition of the PCSK9-LDLR protein-protein interaction; settings: TR-FRET, 20 nM human PCSK9, 20 nM human LDLR EGFa domain, 2 hours room temperature; read-out: IC50
Sequence of human PCSK9 / human LDLR EGFa domain interaction (Q8NBP7 153-692): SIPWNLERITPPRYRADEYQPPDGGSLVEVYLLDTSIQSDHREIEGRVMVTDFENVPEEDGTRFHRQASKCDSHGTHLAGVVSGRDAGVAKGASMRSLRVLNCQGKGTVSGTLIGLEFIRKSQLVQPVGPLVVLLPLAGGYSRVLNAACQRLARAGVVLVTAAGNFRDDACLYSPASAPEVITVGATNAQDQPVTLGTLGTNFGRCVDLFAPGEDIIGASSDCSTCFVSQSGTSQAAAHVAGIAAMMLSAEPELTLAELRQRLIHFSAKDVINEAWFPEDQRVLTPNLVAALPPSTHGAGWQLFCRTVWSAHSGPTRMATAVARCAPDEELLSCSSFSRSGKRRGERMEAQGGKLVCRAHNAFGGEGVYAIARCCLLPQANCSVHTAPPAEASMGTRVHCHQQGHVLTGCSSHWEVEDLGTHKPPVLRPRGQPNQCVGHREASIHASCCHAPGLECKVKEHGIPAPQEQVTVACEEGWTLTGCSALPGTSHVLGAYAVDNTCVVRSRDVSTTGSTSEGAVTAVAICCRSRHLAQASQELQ
Sequence of human PCSK9 / human LDLR EGFa domain interaction (Q8NBP7 31-152 partner): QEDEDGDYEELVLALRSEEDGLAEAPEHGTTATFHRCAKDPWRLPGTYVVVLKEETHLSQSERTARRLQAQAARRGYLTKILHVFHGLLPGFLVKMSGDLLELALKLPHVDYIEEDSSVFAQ
Method in brief: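 20 nM biotin-avitag PCSK9 + 20 nM His-LDLR EGFa; 5 nM Ulight-SA / 5 nM Eu-anti-His; 2 h RT; HEPES 50 mM, NaCl 150 mM, CaCl2 5 mM, 0.01% BSA, 0.01% P20. Half-maximal inhibition, 4-parameter fit.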

PCSK9 [2] = molecular target: T1, PCSK9 (Homo sapiens (Human), UniProt Q8NBP7); experiment: PCSK9 Alexa FRET Standard assay (displacement of AlexaFluor647 tagged cyclic peptide Reagent A); settings: PCSK9 Alexa FRET Standard assay, 0.5 nM PCSK9, 20 nM AF cyclic peptide Reagent A; read-out: IC50
T1 sequence (Q8NBP7 153-692): as the sequence (Q8NBP7 153-692) above
Method in brief: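 TR-FRET displacement: 0.5 nM biotinylated PCSK9 with 1.25 nM Strep-Eu and 20 nM AlexaFluor-tagged cyclic peptide (final) in 50 mM HEPES pH 7.4, 0.15 M NaCl, 5 mM CaCl2, 0.01% BSA, 0.01% P20, ≥2 h at room temperature. IC50 from sigmoidal fit, converted to Ki via peptide KD; falling Eu counts flagged false positives.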

PCSK9 [3] = molecular target: T1, PCSK9; experiment: PCSK9 Alexa FRET Plus assay (displacement of AlexaFluor647 tagged cyclic peptide Reagent B); settings: Alexa FRET Plus, 0.5 nM PCSK9, 960 nM AF cyclic peptide Reagent B; read-out: IC50
Method in brief: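 TR-FRET displacement with final 0.5 nM biotinylated PCSK9, 1.25 nM Strep-Eu and 960 nM AlexaFluor-tagged cyclic peptide in HEPES pH 7.4, NaCl, CaCl2, BSA, P20; ≥2 h at room temperature. IC50 from sigmoidal fit, converted to Ki using peptide KD. Falling europium counts flagged false positives.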

Row | IC50 [1] | IC50 (PCSK9 [2]) | IC50 (PCSK9 [3]) | Structure (SMILES)
1 | 0.1 to 100 nM | 0.11 to 100 nM | 100 to 500 nM | CC(=O)N[C@@H]1CCCNC(=O)c2ccc(cc2)CC(C(N)=O)NC(=O)[C@]2(C)CCCN2C(=O)[C@H](Cc2ccc(O)cc2)NC(=O)[C@H](Cc2cnc[nH]2)NC(=O)[C@H](CC(=O)O)NC(=O)[C@H](Cc2c[nH]c3ccc(F)cc23)NC(=O)[C@H](Cc2c[nH]c3ccc(F)cc23)NC(=O)CNC1=O (stereo partly drawn) [Compound 327] (Ac-[dOrn]G[Trp(5-F)][Trp(5-F)]DHY[αMeP][ξPhe(4-COOH)]-NH2; lactam 1-9)
2 | 0.1 to 100 nM | 0.11 to 100 nM | 0.1 to 100 nM | COc1ccc(C[C@@H]2NC(=O)[C@H](Cc3ccc(OC)cc3)NC(=O)[C@@H](CC(C)C)NC(=O)[C@H]([C@@H](C)OC)NC(=O)CCSCc3cccc(c3)CSC[C@@H](C(N)=O)NC(=O)[C@@H]3CCCN3C(=O)[C@H](Cc3ccc(OC)cc3)NC(=O)[C@H](Cc3ccc(OC)cc3)NC(=O)[C@H](CC(C)C)NC2=O)cc1 [Compound 034] ([Mpa]T(Me)[dL]Y(Me)Y(Me)LY(Me)Y(Me)PC-NH2; linker 1-10 via mXylylene)
3 | 0.1 to 100 nM | 0.11 to 100 nM | 100 to 500 nM | CO[C@@H](C)[C@@H]1NC(=O)CCSCc2cccc(c2)CSC[C@@H](C(N)=O)NC(=O)[C@]2(C)CCCN2C(=O)[C@H](Cc2ccc(O)cc2)NC(=O)[C@H](Cc2cnc[nH]2)NC(=O)[C@H](CC(=O)O)NC(=O)[C@H](Cc2c[nH]c3ccc(F)cc23)NC(=O)[C@H](Cc2c[nH]c3ccc(F)cc23)NC(=O)CNC1=O [Compound 377] ([Mpa][aThr](Me)G[Trp(5-F)][Trp(5-F)]DHY[αMeP]C-NH2; linker 1-10 via mXylylene)
4 | 0.1 to 100 nM | 0.11 to 100 nM | 100 to 500 nM | C[C@@]12CCCN1C(=O)[C@H](Cc1ccc(O)cc1)NC(=O)[C@H](Cc1c[nH]cn1)NC(=O)[C@H](CC(=O)O)NC(=O)[C@H](Cc1c[nH]c3ccc(F)cc13)NC(=O)[C@H](Cc1c[nH]c3ccc(F)cc13)NC(=O)CNC(=O)[C@H](CCCCN)NC(=O)CCSCc1cc(Cl)cc(c1)CSC[C@@H](C(N)=O)NC2=O [Compound 358] ([Mpa]KG[Trp(5-F)][Trp(5-F)]DHY[αMeP]C-NH2; linker 1-10 via X8)
5 | 0.1 to 100 nM | 0.11 to 100 nM | 0.1 to 100 nM | NCCCC[C@@H]1NC(=O)CCSCc2cccc(c2)CSC[C@@H](C(N)=O)NC(=O)[C@@H]2C[C@H](C(F)(F)F)CN2C(=O)[C@H](Cc2ccc(O)cc2)NC(=O)[C@H](Cc2c[nH]cn2)NC(=O)[C@H](CC(=O)O)NC(=O)[C@H](Cc2c[nH]c3ccc(F)cc23)NC(=O)[C@H](Cc2c[nH]c3ccc(F)cc23)NC(=O)CNC1=O [Compound 296] ([Mpa]KG[Trp(5-F)][Trp(5-F)]DHY[Pro(cis-4-CF3)]C-NH2; linker 1-10 via mXylylene)
6 | 0.1 to 100 nM | 0.11 to 100 nM | 0.1 to 100 nM | NCCCC[C@@H]1NC(=O)CCCn2cc(nn2)C[C@@H](C(N)=O)NC(=O)[C@@H]2CCCN2C(=O)[C@H](Cc2ccc(O)cc2)NC(=O)[C@H](Cc2c[nH]cn2)NC(=O)[C@H](CC(=O)O)NC(=O)[C@H](Cc2c[nH]c3ccc(F)cc23)NC(=O)[C@H](Cc2c[nH]c3ccc(F)cc23)NC(=O)CNC1=O [Compound 184]
7 | 0.1 to 100 nM | 100 to 1000 nM | 500 to 5000 nM | COc1ccc(C[C@@H]2NC(=O)[C@H](C(C)C)NC(=O)[C@@H]3CCCN3C(=O)[C@H](Cc3c[nH]c4ccc(F)cc34)NC(=O)[C@H](Cc3c[nH]c4ccc(F)cc34)NC(=O)[C@@H](C)NC(=O)[C@H](CCCCN)NC(=O)CCSCc3cc(F)cc(c3)CSC[C@@H](C(N)=O)NC(=O)[C@]3(C)CCCN3C2=O)cc1 [Compound 010] ([Mpa]K[dA][Trp(5-F)][Trp(5-F)]PVY(Me)[αMeP]C-NH2; linker 1-10 via mXylylene(5-F))
8 | 0.1 to 100 nM | 0.11 to 100 nM | 0.1 to 100 nM | COc1ccc(C[C@@H]2NC(=O)[C@@H]3CCCCC(=O)N[C@H]4C[C@@H](C(=O)N3)N(C4)C(=O)[C@H](Cc3c[nH]c4ccc(F)cc34)NC(=O)[C@H](Cc3c[nH]c4ccc(F)cc34)NC(=O)[C@@H](C)NC(=O)[C@H](CCCN=[N+]=[N-])NC(=O)CCSCc3cccc(c3)CCSCNC(=O)[C@]3(C)CCCN3C2=O)cc1 [Compound 520]
9 | 0.1 to 100 nM | 100 to 1000 nM | 500 to 5000 nM | CC[C@H](C)[C@@H]1NC(=O)[C@@H]2CCCN2C(=O)[C@H](Cc2c[nH]c3ccc(F)cc23)NC(=O)[C@H](Cc2c[nH]c3ccc(F)cc23)NC(=O)[C@@H](C)NC(=O)[C@H](CCCCN)NC(=O)CCSCc2cccc(c2)CSC[C@@H](C(N)=O)NC(=O)[C@]2(C)CCCN2C(=O)[C@H](Cc2ccc(OC)cc2)NC1=O [Compound 007] ([Mpa]K[dA][Trp(5-F)][Trp(5-F)]PIY(Me)[αMeP]C-NH2; linker 1-10 via mXylylene)
10 | 0.1 to 100 nM | 0.11 to 100 nM | 100 to 500 nM | CC(C)C[C@@H]1NC(=O)[C@@H]2CCCN2C(=O)[C@H](Cc2c[nH]c3ccc(F)cc23)NC(=O)[C@H](Cc2c[nH]c3ccc(F)cc23)NC(=O)CNC(=O)[C@H](CCCCN)NC(=O)CCSCc2cccc(c2)CSC[C@@H](C(N)=O)NC(=O)[C@]2(C)CCCN2C(=O)[C@H](Cc2ccc(O)cc2)NC1=O [Compound 004] ([Mpa]KG[Trp(5-F)][Trp(5-F)]PLY[αMeP]C-NH2; linker 1-10 via mXylylene)

Row | Structure (SMILES) | IC50 [1] | IC50 (PCSK9 [2]) | IC50 (PCSK9 [3])
11 | C[C@H]1NC(=O)[C@H](CCCCN)NC(=O)CCSCc2cccc(c2)CSCCNC(=O)[C@]2(C)CCCN2C(=O)[C@H](Cc2ccc(O)cc2)N(C)C(=O)[C@H](Cc2c[nH]cn2)NC(=O)[C@H](CC(=O)O)NC(=O)[C@H](Cc2c[nH]c3ccc(F)cc23)NC(=O)[C@H](Cc2c[nH]c3ccc(F)cc23)NC1=O [Compound 277] (cyclo(DH[NMeY][αMeP][X4]K[dA][Trp(5-F)][Trp(5-F)])) | 0.1 to 100 nM | 0.11 to 100 nM | 100 to 500 nM
12 | COc1ccc(C[C@@H]2NC(=O)[C@H](Cc3cnc[nH]3)NC(=O)[C@H](CC(=O)O)NC(=O)[C@H](Cc3c[nH]c4ccc(F)cc34)NC(=O)[C@H](Cc3c[nH]c4ccc(F)cc34)NC(=O)[C@@H](C)NC(=O)[C@H](NC(C)=O)CCCCNC(=O)Cc3cccc(c3)CNC(=O)CC[C@@H](C(=O)O)NC(=O)[C@]3(C)CCCN3C2=O)cc1 [Compound 396] (Ac-[dK][dA][Trp(5-F)][Trp(5-F)]DHY(Me)[αMeP][γGlu][NHCH2(1,3-C6H4)CH2CO]; lactam 1-C) | 0.1 to 100 nM | 0.11 to 100 nM | 100 to 500 nM
